Assay results: patent EP4574817A1 (LoQus23 Therapeutics Limited, priority 2023, dated 2025)

biological target: T1, MutSβ (Homo sapiens, UniProt P20585+P43246); assay: MutSβ ADP Glo Assay; type: biochemical; conditions: 20nM MutSβ, 30nM CAG DNA, 25 µM ATP, 2 hours at room temperature
T1 construct: purchased AMRI
Protocol: Biological Example A - MutSβ Assay
• MutSβ (supplied by AMRI) stored at -70°C • ADP Glo Kinase Assay Kit (Promega: V9102) stored at -20°C • ATP (supplied within the ADP Glo Kit) stored at -20°C • 1M KCI (Sigma Aldrich: P9333) stored at 2-8°C • 1 M HEPES pH 7.5 (Gibco: M15630-080) stored at 2-8°C • 1M MgCl2 (Sigma Aldrich: M1028-100mL) stored at 2-8°C • Tween-20 (Sigma Aldrich: P1379) (10% solution) stored at 2-8°C • 500mM DTT (Sigma Aldrich: 10197777001) stored at -20°C • CAG loop DNA for MutSβ (made in house) stored at -20°C • MilliQ water stored at room temperature
• 1. Prepare the buffer fresh each day • 2. Take the enzyme from the freezer, thaw in room temperature water and centrifuge at 13,000 rpm for 10 minutes at 2-8C, then make up enzyme and ATP stocks • 3. Quality Control the multidrop head to a %CV of <2% • 4. Add 3µL of 33.34nM MutSβ and 50.01nM CAG looped DNA solution […] to each well in columns 1 and 3-23 of the plate • 5. Pre-incubate the MutSβ and buffer mix for 10 minutes with the compounds • 6. Wash the multidrop head through with MilliQ water (for at least 30 seconds) • 7. Add 3µL of MutSβ Assay buffer (without enzyme) to columns 2 and 24 for the vehicle controls • 8. Wash the multidrop head through with MilliQ water (for at least 30 seconds) • 9. Add 2µL of 62.5µM ATP to each well of the whole plate, then wash with MilliQ water (for a minimum of 30 seconds) • 10. Centrifuge plate for 1 minute at 1000 rpm • 11. Incubate for 2 hours at room temperature • 12. Add 5µL of ADP Glo reagent to each well of the whole plate and wash the multidrop head with MilliQ water (for a minimum of 30 seconds) • 13. Incubate for 40 minutes at room temperature (minimum requirement) • 14. Add 10µL of Kinase Detection Reagent to each well of the whole plate • 15. Wash the multidrop head with MilliQ water more than 1 minute and then dry • 16. Remove the head and put the cover back on for overnight storage • 17. Incubate for 30 minutes at room temperature (minimum requirement) • 18. Read on a microplate reader

T1 sequence (P43246 whole entry): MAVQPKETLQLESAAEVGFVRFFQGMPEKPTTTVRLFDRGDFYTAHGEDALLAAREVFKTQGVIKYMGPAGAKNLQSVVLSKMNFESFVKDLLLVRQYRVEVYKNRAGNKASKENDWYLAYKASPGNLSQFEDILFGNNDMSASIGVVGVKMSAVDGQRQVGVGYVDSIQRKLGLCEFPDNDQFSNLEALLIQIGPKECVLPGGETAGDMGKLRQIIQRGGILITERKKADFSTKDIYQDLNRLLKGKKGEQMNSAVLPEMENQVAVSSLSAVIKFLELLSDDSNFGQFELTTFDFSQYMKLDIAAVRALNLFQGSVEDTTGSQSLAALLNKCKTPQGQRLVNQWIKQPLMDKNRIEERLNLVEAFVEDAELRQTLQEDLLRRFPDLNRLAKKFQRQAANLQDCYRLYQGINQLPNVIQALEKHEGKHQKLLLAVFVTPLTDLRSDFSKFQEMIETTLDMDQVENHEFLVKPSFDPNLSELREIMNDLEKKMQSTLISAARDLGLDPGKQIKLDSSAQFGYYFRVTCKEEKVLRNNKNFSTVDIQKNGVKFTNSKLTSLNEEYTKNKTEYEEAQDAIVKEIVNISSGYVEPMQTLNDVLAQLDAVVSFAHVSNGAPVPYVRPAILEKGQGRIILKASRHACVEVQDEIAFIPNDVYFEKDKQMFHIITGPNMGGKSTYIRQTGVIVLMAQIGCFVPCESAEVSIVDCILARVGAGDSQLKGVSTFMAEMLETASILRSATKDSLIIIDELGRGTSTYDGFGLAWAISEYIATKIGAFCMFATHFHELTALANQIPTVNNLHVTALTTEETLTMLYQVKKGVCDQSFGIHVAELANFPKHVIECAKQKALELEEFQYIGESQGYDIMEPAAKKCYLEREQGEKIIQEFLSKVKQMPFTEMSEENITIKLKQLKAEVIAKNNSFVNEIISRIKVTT
T1 sequence (P20585 whole entry): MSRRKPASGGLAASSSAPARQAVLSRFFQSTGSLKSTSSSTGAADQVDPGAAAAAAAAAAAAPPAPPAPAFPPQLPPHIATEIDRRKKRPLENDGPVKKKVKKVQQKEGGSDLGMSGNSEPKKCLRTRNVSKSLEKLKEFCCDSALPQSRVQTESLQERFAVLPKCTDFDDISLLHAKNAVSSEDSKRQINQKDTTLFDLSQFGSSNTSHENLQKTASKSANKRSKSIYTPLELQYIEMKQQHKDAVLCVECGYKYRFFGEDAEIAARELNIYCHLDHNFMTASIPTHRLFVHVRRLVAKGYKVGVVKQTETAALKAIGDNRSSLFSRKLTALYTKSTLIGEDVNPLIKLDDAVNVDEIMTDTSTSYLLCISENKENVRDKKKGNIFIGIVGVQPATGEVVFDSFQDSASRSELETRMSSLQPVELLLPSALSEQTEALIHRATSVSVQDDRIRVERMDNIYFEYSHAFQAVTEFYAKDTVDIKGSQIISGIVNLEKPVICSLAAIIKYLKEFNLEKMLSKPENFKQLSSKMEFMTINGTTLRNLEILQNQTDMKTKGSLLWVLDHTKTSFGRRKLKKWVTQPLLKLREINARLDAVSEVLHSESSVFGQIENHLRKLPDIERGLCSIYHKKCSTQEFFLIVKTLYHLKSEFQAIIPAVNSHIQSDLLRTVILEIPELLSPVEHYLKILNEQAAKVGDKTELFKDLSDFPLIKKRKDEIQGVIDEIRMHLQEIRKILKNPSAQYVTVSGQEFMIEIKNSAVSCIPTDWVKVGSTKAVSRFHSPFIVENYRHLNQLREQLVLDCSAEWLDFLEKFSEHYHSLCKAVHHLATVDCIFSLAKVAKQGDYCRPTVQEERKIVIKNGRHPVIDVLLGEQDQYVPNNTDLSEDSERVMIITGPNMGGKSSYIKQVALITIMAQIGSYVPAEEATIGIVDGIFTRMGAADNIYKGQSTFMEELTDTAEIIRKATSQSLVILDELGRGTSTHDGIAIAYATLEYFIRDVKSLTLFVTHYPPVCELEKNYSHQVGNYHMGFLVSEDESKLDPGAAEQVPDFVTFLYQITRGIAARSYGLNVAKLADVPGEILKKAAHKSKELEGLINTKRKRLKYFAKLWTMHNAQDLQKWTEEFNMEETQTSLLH

First: Cc1nc(NC(=O)COS(=O)(=O)N(C)C)sc1Cc1ccc(F)cc1 [Example 4, 2-((5-(4-fluorobenzyl)-4-methylthiazol-2-yl)amino)-2-oxoethyl dimethylsulfamate]
Second: CNS(=O)(=O)OCC(=O)Nc1nc(C2CC2)c(Cc2ccc(C)cc2)s1 [Example 36, 2-((4-cyclopropyl-5-(4-methylbenzyl)thiazol-2-yl)amino)-2-oxoethyl methylsulfamate]
The IC50 of the first is lower: 0.5 to 1 µM for the first, 1 to 10 µM for the second.

First: CCN(C(=O)COS(=O)(=O)NC)c1nc(C)c(Cc2cccc(Cl)c2)s1 [Example 57, 2-((5-(3-chlorobenzyl)-4-methylthiazol-2-yl)(ethyl)amino)-2-oxoethyl methylsulfamate]
Second: CNS(=O)(=O)OCC(=O)Nc1nc(C)c(Cc2cccc3ccccc23)s1 [Example 48, 2-((4-methyl-5-(naphthalen-1-ylmethyl)thiazol-2-yl)amino)-2-oxoethyl methylsulfamate]
The IC50 of the first is lower: 0.5 to 1 µM for the first, 10 to 50 µM for the second.

First: CNS(=O)(=O)OCC(=O)Nc1nc(C)c(Cc2ccc(Cl)cc2)s1 [Example 30, 2-((5-(4-chlorobenzyl)-4-methylthiazol-2-yl)amino)-2-oxoethyl methylsulfamate]
Second: Cc1ccc(Cc2sc(NC(=O)COS(=O)(=O)N3CC(F)C3)nc2C)cc1 [Example 21, 2-((4-methyl-5-(4-methylbenzyl)thiazol-2-yl)amino)-2-oxoethyl 3-fluoroazetidine-1-sulfonate]
The IC50 of the first is higher: 1 to 10 µM for the first, 0.5 to 1 µM for the second.

First: CNS(=O)(=O)OCC(=O)Nc1nc(C)c(Cc2ccc(C(C)C)cc2)s1 [Example 33, 2-((5-(4-isopropylbenzyl)-4-methylthiazol-2-yl)amino)-2-oxoethyl methylsulfamate]
Second: Cc1ccc(Cc2sc(NC(=O)COS(=O)(=O)NCc3ccccc3)nc2C)cc1 [Example 45, 2-((4-methyl-5-(4-methylbenzyl)thiazol-2-yl)amino)-2-oxoethyl benzylsulfamate]
The IC50 of the first is higher: 10 to 50 µM for the first, 1 to 10 µM for the second. The second is the more potent here.

First: 2-((4-methyl-5-(4-methylbenzyl)thiazol-2-yl)amino)-2-oxoethyl isobutylsulfamate [Example 17]
Second: CNS(=O)(=O)OCC(=O)Nc1nc(C(F)(F)F)c(Cc2ccc(C)cc2)s1 [Example 44]
The IC50 of the first is higher: 10 to 50 µM for the first, 1 to 10 µM for the second. The second is the more potent here.

First: CNS(=O)(=O)OCC(=O)Nc1nc(C)c(CCc2ccc(Cl)cc2)s1 [Example 38, 2-((5-(4-chlorophenethyl)-4-methylthiazol-2-yl)amino)-2-oxoethyl methylsulfamate]
Second: Cc1ccc(Cc2sc(NC(=O)COS(=O)(=O)N3CCOCC3)nc2C)cc1 [Example 9, 2-((4-methyl-5-(4-methylbenzyl)thiazol-2-yl)amino)-2-oxoethyl morpholine-4-sulfonate]
The IC50 of the first is higher: 10 to 50 µM for the first, 0.5 to 1 µM for the second. The second is the more potent here.

First: Cc1nc(NC(=O)COS(=O)(=O)N(C)C)sc1Cc1cccc(C(F)(F)F)c1 [Example 13, 2-((4-methyl-5-(3-(trifluoromethyl)benzyl)thiazol-2-yl)amino)-2-oxoethyl dimethylsulfamate]
Second: CNS(=O)(=O)OCC(=O)Nc1nc(C(C)C)c(Cc2ccc(C)cc2)s1 [Example 37, 2-((4-isopropyl-5-(4-methylbenzyl)thiazol-2-yl)amino)-2-oxoethyl methylsulfamate]
The IC50 of the first is lower: 1 to 10 µM for the first, 10 to 50 µM for the second. The first is the more potent here.

Compared with CNS(=O)(=O)OCC(=O)Nc1nc(CN2CCOCC2)c(Cc2cccc(Cl)c2)s1 [Example 58, 2-((5-(3-chlorobenzyl)-4-(morpholinomethyl)thiazol-2-yl)amino)-2-oxoethyl methylsulfamate], CCCNS(=O)(=O)OCC(=O)Nc1nc(C)c(Cc2ccc(C)cc2)s1 [Example 41, 2-((4-methyl-5-(4-methylbenzyl)thiazol-2-yl)amino)-2-oxoethyl propylsulfamate] is lower in IC50: 10 to 50 µM for the first, 1 to 10 µM for the second.

First: CNS(=O)(=O)OCC(=O)Nc1nc(C)c(Cc2ccc(C(F)(F)F)cc2)s1 [Example 32, 2-((4-methyl-5-(4-(trifluoromethyl)benzyl)thiazol-2-yl)amino)-2-oxoethyl methylsulfamate]
Second: CNS(=O)(=O)OCC(=O)Nc1nc(CO)c(Cc2ccc(C)cc2)s1 [Example 51, 2-((4-(hydroxymethyl)-5-(4-methylbenzyl)thiazol-2-yl)amino)-2-oxoethyl methylsulfamate]
The IC50 of the first is lower: 1 to 10 µM for the first, 10 to 50 µM for the second.

First: CNS(=O)(=O)OCC(=O)Nc1nc(C)c(Cc2cc(Cl)ccc2F)s1 [Example 55, 2-((5-(5-chloro-2-fluorobenzyl)-4-methylthiazol-2-yl)amino)-2-oxoethyl methylsulfamate]
Second: Cc1ccc(Cc2sc(NC(=O)COS(=O)(=O)NC(C)(C)C)nc2C)cc1 [Example 43, 2-((4-methyl-5-(4-methylbenzyl)thiazol-2-yl)amino)-2-oxoethyl tert-butylsulfamate]
The IC50 of the first is lower: 1 to 10 µM for the first, 10 to 50 µM for the second.

Cc1ccc(Cc2sc(NC(=O)COS(N)(=O)=O)nc2C)cc1 [Example 3, 2-((4-methyl-5-(4-methylbenzyl)thiazol-2-yl)amino)-2-oxoethyl sulfamate] and CNS(=O)(=O)OCC(=O)Nc1nc(C)c(Cc2ccc(OC)cc2)s1 [Example 26, 2-((5-(4-methoxybenzyl)-4-methylthiazol-2-yl)amino)-2-oxoethyl methylsulfamate] fall in the same range of IC50: 1 to 10 µM for the first, 1 to 10 µM for the second.

First: CNS(=O)(=O)OCC(=O)Nc1nc2c(s1)C(c1cccc(Cl)c1)CCC2 (stereo not drawn) [Example 62, 2-((7-(3-chlorophenyl)-4,5,6,7-tetrahydrobenzo[d]thiazol-2-yl)amino)-2-oxoethyl methylsulfamate]
Second: CNS(=O)(=O)OCC(=O)Nc1nc(C)c(Cc2cccc(C)c2)s1 [Example 24, 2-((4-methyl-5-(3-methylbenzyl)thiazol-2-yl)amino)-2-oxoethyl methylsulfamate]
The IC50 of the first is lower: no more than 0.5 µM for the first, 1 to 10 µM for the second.

First: Cc1ccc(Cc2sc(NC(=O)COS(=O)(=O)N(C)Cc3ccccc3)nc2C)cc1 [Example 42, 2-((4-methyl-5-(4-methylbenzyl)thiazol-2-yl)amino)-2-oxoethyl benzyl(methyl)sulfamate]
Second: CNS(=O)(=O)OCC(=O)Nc1nc(C)c(Cc2ccccc2C)s1 [Example 11, 2-((4-methyl-5-(2-methylbenzyl)thiazol-2-yl)amino)-2-oxoethyl methylsulfamate]
The IC50 of the first is lower: 1 to 10 µM for the first, 10 to 50 µM for the second. The first is the more potent here.

CCc1nc(NC(=O)COS(=O)(=O)NC)sc1Cc1ccc(C)cc1 [Example 18, 2-((4-ethyl-5-(4-methylbenzyl)thiazol-2-yl)amino)-2-oxoethyl methylsulfamate] and Cc1ccc(Cc2sc(NC(=O)COS(=O)(=O)N(C)C)nc2C)cc1 [Example 20, 2-((4-methyl-5-(4-methylbenzyl)thiazol-2-yl)amino)-2-oxoethyl dimethylsulfamate] fall in the same range of IC50: 1 to 10 µM for the first, 1 to 10 µM for the second.

First: Cc1nc(NC(=O)COS(=O)(=O)N(C)C)sc1Cc1ccccc1 [Example 28, 2-((5-benzyl-4-methylthiazol-2-yl)amino)-2-oxoethyl dimethylsulfamate]
Second: Cc1nc(NC(=O)COS(=O)(=O)N(C)C)sc1CCc1ccccc1 [Example 35, 2-((4-methyl-5-phenethylthiazol-2-yl)amino)-2-oxoethyl dimethylsulfamate]
The IC50 of the first is lower: 1 to 10 µM for the first, 10 to 50 µM for the second. The first is the more potent here.

First: CNS(=O)(=O)OCC(=O)Nc1nc(C)c(Cc2cccc(Cl)c2F)s1 [Example 53, 2-((5-(3-chloro-2-fluorobenzyl)-4-methylthiazol-2-yl)amino)-2-oxoethyl methylsulfamate]
Second: COCCNS(=O)(=O)OCC(=O)Nc1nc(C)c(Cc2cccc(Cl)c2)s1 [Example 8, 2-((5-(3-chlorobenzyl)-4-methylthiazol-2-yl)amino)-2-oxoethyl (2-methoxyethyl)sulfamate]
The IC50 of the first is higher: 1 to 10 µM for the first, 0.5 to 1 µM for the second. The second is the more potent here.

First: CNC(=O)OCc1nc(NC(=O)COS(=O)(=O)NC)sc1Cc1cccc(Cl)c1 [Example 60, 2-((5-(3-chlorobenzyl)-4-(((methylcarbamoyl)oxy)methyl)thiazol-2-yl)amino)-2-oxoethyl methylsulfamate]
Second: Cc1ccc(Cc2sc(NC(=O)COS(=O)(=O)N3CCC3)nc2C)cc1 [Example 25, 2-((4-methyl-5-(4-methylbenzyl)thiazol-2-yl)amino)-2-oxoethyl azetidine-1-sulfonate]
The IC50 of the first is higher: 1 to 10 µM for the first, no more than 0.5 µM for the second. The second is the more potent here.

CNS(=O)(=O)OCC(=O)Nc1nc(C)c(Cc2ccccc2Cl)s1 [Example 16, 2-((5-(2-chlorobenzyl)-4-methylthiazol-2-yl)amino)-2-oxoethyl methylsulfamate] and Cc1nc(NC(=O)COS(=O)(=O)N(C)C)sc1Cc1ccccc1F [Example 22, 2-((5-(2-fluorobenzyl)-4-methylthiazol-2-yl)amino)-2-oxoethyl dimethylsulfamate] fall in the same range of IC50: 1 to 10 µM for the first, 1 to 10 µM for the second.
